Residues, ends and D or L forms follow the SMILES beside them.
Key:
Test in all cases: MIC of phase IIb clinical isolates
Format in all cases: cell-based
Klebsiella pneumoniae = conditions: 45 strains
Enterobacter cloacae = conditions: 63 strains
Escherichia coli = conditions: 22 strains
[1] = test system: Staphylococcus epidermidis; conditions: 126 strains
Pseudomonas aeruginosa = conditions: 74 strains
Acinetobacter baumannii = conditions: 31 strains
Enterococcus faecalis = conditions: 25 strains
[2] = test system: Staphylococcus haemolyticus; conditions: 23 strains
Staphylococcus aureus = conditions: 320 strains

Row | Compound | Strains Resistant to Control Antibiotics (Klebsiella pneumoniae) | Strains Resistant to Control Antibiotics (Enterobacter cloacae) | Strains Resistant to Control Antibiotics (Escherichia coli) | Strains Resistant to Control Antibiotics [1] | Strains Resistant to Control Antibiotics (Pseudomonas aeruginosa) | Strains Resistant to Control Antibiotics (Acinetobacter baumannii) | Strains Resistant to Control Antibiotics (Enterococcus faecalis) | Strains Resistant to Control Antibiotics [2] | Strains Resistant to Control Antibiotics (Staphylococcus aureus) | MIC50 (Escherichia coli) | MIC90 (Escherichia coli) | MIC50 [1] | MIC90 [1] | MIC90 (Pseudomonas aeruginosa) | MIC50 (Enterococcus faecalis) | MIC90 (Enterococcus faecalis) | MIC50 [2] | MIC90 [2]
1 | CO/N=C(\C(=O)N[C@@H]1C(=O)N2C(C(=O)O)=C(CSc3nc(=O)c(=O)[nH]n3C)CS[C@H]12)c1csc(N)n1 [Ceftriaxone, ceftriaxone] | 18 (40.0) n (%) | 8 n (%) | 13 (59.1) n (%) | No | 74 (100) n (%) | 14 (45.2) n (%) | 25 (100) n (%) | No |  |  |  |  |  |  |  |  |  | 
2 | C[C@@H](O)[C@H]1C(=O)N2C(C(=O)O)=C(SCCN=CN)C[C@H]12 [Imipenem, imipenem] | 1 n (%) | 8 n (%) | 0 n (%) |  | 2 n (%) | 15 (48.4) n (%) |  |  |  |  |  |  |  |  |  |  |  | 
3 | C[C@H]1COc2c(N3CCN(C)CC3)c(F)cc3c(=O)c(C(=O)O)cn1c23 [Levofloxacin, levofloxacin] | 14 (31.1) n (%) | 2 n (%) | 13 (59.1) n (%) | 41 (32.5) n (%) | 8 n (%) | 5 n (%) | 2 n (%) | 14 (60.9) n (%) | 56 (17.5) n (%) |  |  |  |  |  |  |  |  | 
4 | CC[C@H](C)[C@H](NC(=O)[C@H](C)NC(=O)[C@H](CCCCN)NC(=O)[C@H](CC(C)C)NC(=O)[C@H](C)NC(=O)[C@@H](NC(=O)[C@H](Cc1c[nH]cn1)NC(=O)[C@H](CC(C)C)NC(=O)[C@@H](NC(=O)[C@@H](NC(=O)[C@H](CCCCN)NC(=O)[C@H](C)NC(=O)[C@H](C)NC(=O)[C@H](CO)NC(=O)[C@H](CCCCN)NC(=O)[C@H](Cc1ccccc1)NC(=O)[C@@H](NC(=O)[C@H](CCCCN)NC(=O)[C@H](CC(C)C)NC(=O)[C@H](Cc1ccccc1)NC(=O)[C@H](CO)NC(=O)[C@H](CCCCN)NC(=O)[C@H](Cc1c[nH]c2ccccc12)NC(=O)[C@H](CCCCN)NC(C)=O)[C@@H](C)O)[C@@H](C)O)C(C)C)[C@@H](C)O)C(=O)N[C@@H](CO)C(=O)N[C@@H](CO)C(N)=O [PL-5, Peceleganan] (Ac-KWKSFLKTFKSAAKTVLHTALKAISS-NH2; N-terminus and C-terminus assumed) |  |  |  |  |  |  |  |  |  | 8 µg/mL | 16 µg/mL | 4 µg/mL | 4 µg/mL | 8 µg/mL | 64 µg/mL | 128 µg/mL | 2 µg/mL | 8 µg/mL
5 | CN[C@H](CC(C)C)C(=O)N[C@H]1C(=O)N[C@@H](CC(N)=O)C(=O)N[C@H]2C(=O)N[C@H]3C(=O)N[C@H](C(=O)N[C@H](C(=O)O)c4cc(O)cc(O)c4-c4cc3ccc4O)[C@H](O)c3ccc(c(Cl)c3)Oc3cc2cc(c3O[C@@H]2O[C@H](CO)[C@@H](O)[C@H](O)[C@H]2O[C@H]2C[C@](C)(N)[C@H](O)[C@H](C)O2)Oc2ccc(cc2Cl)[C@H]1O [Vancomycin, vancomycin] |  |  |  | 0 n (%) |  |  | 0 n (%) | 0 n (%) | 0 n (%) |  |  |  |  |  |  |  |  | 

Source: PMC9762708 (Annals of Surgery, 2022)
